Numbers after ± are expanded uncertainties.
Assay: activity coefficient (dimensionless); of the first substance listed, at infinite dilution; xn = mol fraction of the nth substance listed
Details: 298.15 K; 238 kPa; Liquid; Chromatography; x1 = 0

Compound: CC(C)(C)Cl [2-chloro-2-methylpropane] + CCOC(C)=O
- activity coefficient: 0.9 ± 0.2

Compound: CC(C)(C)Cl [2-chloro-2-methylpropane] + CC(O)CO
- activity coefficient: 17.3 ± 2.1

Compound: CC(C)(C)Cl [2-chloro-2-methylpropane] + CNC=O
- activity coefficient: 6.3 ± 0.3

Compound: CC(C)(C)Cl [2-chloro-2-methylpropane] + OCCOCCOCCO
- activity coefficient: 6.8 ± 0.8

Compound: CC(C)(C)Cl [2-chloro-2-methylpropane] + OCCOCCO
- activity coefficient: 11.2 ± 2

Compound: CC(C)(C)Cl [2-chloro-2-methylpropane] + CO
- activity coefficient: 6.1 ± 0.3

Compound: CC(C)(C)Cl [2-chloro-2-methylpropane] + c1ccccc1
- activity coefficient: 0.89 ± 0.08

Compound: CC(C)(C)Cl [2-chloro-2-methylpropane] + CCCCCCC
- activity coefficient: 1.02 ± 0.08

Compound: CC(C)(C)Cl [2-chloro-2-methylpropane] + CCCCO
- activity coefficient: 2.4 ± 0.4

Compound: CC(C)(C)Cl [2-chloro-2-methylpropane] + CCCCCCCC
- activity coefficient: 1.3 ± 0.2

Compound: CC(C)(C)Cl [2-chloro-2-methylpropane] + CCCCCCO
- activity coefficient: 2.4 ± 0.2

Compound: CC(C)(C)Cl [2-chloro-2-methylpropane] + CCC(O)CO
- activity coefficient: 6.4 ± 0.5

Compound: CC(C)(C)Cl [2-chloro-2-methylpropane] + CC(O)CCO
- activity coefficient: 18.1 ± 3.1

Compound: CC(C)(C)Cl [2-chloro-2-methylpropane] + OCCO
- activity coefficient: 51.7 ± 10

Compound: CC(C)(C)Cl [2-chloro-2-methylpropane] + C1CCCCC1
- activity coefficient: 1.2 ± 0.2

Compound: CC(C)(C)Cl [2-chloro-2-methylpropane] + CCCO
- activity coefficient: 3.1 ± 0.4

Compound: CC(C)(C)Cl [2-chloro-2-methylpropane] + CC(C)O
- activity coefficient: 3 ± 0.6

Compound: CC(C)(C)Cl [2-chloro-2-methylpropane] + COCCO
- activity coefficient: 2.9 ± 0.4

Compound: CC(C)(C)Cl [2-chloro-2-methylpropane] + CC(O)C(C)O
- activity coefficient: 12.3 ± 2

Compound: CC(C)(C)Cl [2-chloro-2-methylpropane] + ClCCCl
- activity coefficient: 0.99 ± 0.1

Compound: CC(C)(C)Cl [2-chloro-2-methylpropane] + CCO
- activity coefficient: 4.5 ± 0.6

Compound: CC(C)(C)Cl [2-chloro-2-methylpropane] + CCCCCO
- activity coefficient: 2.4 ± 0.4

— the NIST ThermoML archive (doi:10.1016/j.fluid.2014.09.011)
